Laboratory results: ChEMBL document CHEMBL1201862, “PubChem BioAssay data set” (2004)
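Five compound concentrations were applied to cells in 96-well plates for 48 hours; endpoints were derived by simple linear interpolation of the resulting dose-response curve. GI50 is the concentration that inhibits growth by half.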 Activity calls are given as the source filed them. Cut-off read from the data, not from the text of the source: active = GI50 up to about 1.1 µM and inactive = higher.

Tests used:
Experiment in all cases: inhibition of tumour cell growth, NCI panel, 48 h
CAKI-1 = test system: CAKI-1
CCRF-CEM = test system: CCRF-CEM
COLO 205 = test system: COLO 205
HT-29 = test system: HT-29
IGROV-1 = test system: IGROV-1
K562 = test system: K562
KM12 = test system: KM12
LOX IMVI = test system: LOX IMVI
MDA-MB-231 = test system: MDA-MB-231
NCI-H522 = test system: NCI-H522
OVCAR-5 = test system: OVCAR-5
SF-295 = test system: SF-295
SK-MEL-28 = test system: SK-MEL-28
SK-MEL-2 = test system: SK-MEL-2
SN12C = test system: SN12C
SR = test system: SR
T47D = test system: T47D
TK-10 = test system: TK-10
UACC-257 = test system: UACC-257

Row | SMILES | GI50 (CAKI-1) | GI50 (CCRF-CEM) | GI50 (COLO 205) | GI50 (HT-29) | GI50 (IGROV-1) | GI50 (K562) | GI50 (KM12) | GI50 (LOX IMVI) | GI50 (MDA-MB-231) | GI50 (NCI-H522) | GI50 (OVCAR-5) | GI50 (SF-295) | GI50 (SK-MEL-28) | GI50 (SK-MEL-2) | GI50 (SN12C) | GI50 (SR) | GI50 (T47D) | GI50 (TK-10) | GI50 (UACC-257)
1 | CC(=O)CC(=O)Nc1ccc2ccccc2c1 | 84.3 µM (inactive) | 36.8 µM (inactive) | 35.5 µM (inactive) | > 100 µM (inactive) | > 100 µM (inactive) | 46.9 µM (inactive) | > 100 µM (inactive) | > 100 µM (inactive) | > 100 µM (inactive) | 47.2 µM (inactive) | > 100 µM (inactive) | 69.7 µM (inactive) | > 100 µM (inactive) | > 100 µM (inactive) | > 100 µM (inactive) | 51.5 µM (inactive) | 40.2 µM (inactive) | 65.8 µM (inactive) | 51.9 µM (inactive)
2 | O=C(CNC(c1ccccc1)(c1ccccc1)c1ccccc1)NC1CCCCC1NC(=O)CNC(c1ccccc1)(c1ccccc1)c1ccccc1 (stereo unspecified) | > 100 µM (inactive) | > 100 µM (inactive) | > 100 µM (inactive) | > 100 µM (inactive) | > 100 µM (inactive) | > 100 µM (inactive) | > 100 µM (inactive) | > 100 µM (inactive) | > 100 µM (inactive) | > 100 µM (inactive) | > 100 µM (inactive) | > 100 µM (inactive) | > 100 µM (inactive) | > 100 µM (inactive) | > 100 µM (inactive) | > 100 µM (inactive) | > 100 µM (inactive) | > 100 µM (inactive) | > 100 µM (inactive)
3 | Nc1nc(Cl)cc(NCC2(O)CCCC2)n1 | > 100 µM (inactive) | > 100 µM (inactive) | > 100 µM (inactive) | > 100 µM (inactive) | > 100 µM (inactive) | > 100 µM (inactive) | > 100 µM (inactive) | > 100 µM (inactive) | > 100 µM (inactive) | > 100 µM (inactive) | > 100 µM (inactive) | > 100 µM (inactive) | > 100 µM (inactive) | > 100 µM (inactive) | > 100 µM (inactive) | > 100 µM (inactive) | > 100 µM (inactive) | > 100 µM (inactive) | > 100 µM (inactive)
4 | C[C@@]1(OC(=O)c2cc([N+](=O)[O-])cc([N+](=O)[O-])c2)C[C@@H]2CCCC[C@@H]21 | > 100 µM (inactive) | > 100 µM (inactive) | > 100 µM (inactive) | > 100 µM (inactive) | > 100 µM (inactive) | > 100 µM (inactive) | > 100 µM (inactive) | > 100 µM (inactive) | > 100 µM (inactive) | > 100 µM (inactive) | > 100 µM (inactive) | 66.4 µM (inactive) | > 100 µM (inactive) | > 100 µM (inactive) | > 100 µM (inactive) | > 100 µM (inactive) | > 100 µM (inactive) | > 100 µM (inactive) | > 100 µM (inactive)
5 | COc1cc(-c2c(C#N)c(N)c(C#N)c3c2COc2ccccc2-3)cc(OC)c1OC | 53.1 µM (inactive) | > 100 µM (inactive) | > 100 µM (inactive) | > 30.6 µM (inactive) | 26.7 µM (inactive) | > 60.4 µM (inactive) | > 100 µM (inactive) | 39.2 µM (inactive) | 15.1 µM (inactive) | 84.1 µM (inactive) | > 100 µM (inactive) | 24.9 µM (inactive) | > 100 µM (inactive) | 22.6 µM (inactive) | 25.9 µM (inactive) | > 74 µM (inactive) | > 46.9 µM (inactive) | 17.6 µM (inactive) | > 100 µM (inactive)
6 | C#CCn1c2c(c3ccccc3c1=O)C(=O)c1ccccc1-2 | 12 µM (inactive) | > 100 µM (inactive) | 22.4 µM (inactive) | 10.7 µM (inactive) | 15.7 µM (inactive) | 19 µM (inactive) | 10.1 µM (inactive) | 18.2 µM (inactive) | 15.2 µM (inactive) | 10.7 µM (inactive) | 24.7 µM (inactive) | 20.2 µM (inactive) | 26.6 µM (inactive) | 29.9 µM (inactive) | 11.4 µM (inactive) | 4.49 µM (inactive) | 15.8 µM (inactive) | 19.5 µM (inactive) | 32.3 µM (inactive)
7 | CSc1[nH]nc(N)c1C(=O)Nc1ccc(Cl)cc1 | 46.2 µM (inactive) | 27 µM (inactive) | 99.5 µM (inactive) | 41.5 µM (inactive) | 98.9 µM (inactive) | 51.3 µM (inactive) | 55.6 µM (inactive) | 76.9 µM (inactive) | > 100 µM (inactive) | 27 µM (inactive) | > 100 µM (inactive) | – | > 100 µM (inactive) | > 100 µM (inactive) | > 100 µM (inactive) | 35.3 µM (inactive) | 58.1 µM (inactive) | 47.2 µM (inactive) | > 100 µM (inactive)
8 | CCO/N=C(/CC)c1ccc(Br)s1 | > 100 µM (inactive) | > 100 µM (inactive) | > 100 µM (inactive) | > 100 µM (inactive) | > 100 µM (inactive) | > 100 µM (inactive) | > 100 µM (inactive) | 80.5 µM (inactive) | > 100 µM (inactive) | > 100 µM (inactive) | > 100 µM (inactive) | > 100 µM (inactive) | > 100 µM (inactive) | > 100 µM (inactive) | > 100 µM (inactive) | 52.2 µM (inactive) | > 100 µM (inactive) | > 100 µM (inactive) | > 100 µM (inactive)
9 | CC(C)(C)c1cc(/C=C(\C#N)C(=O)NCCO)cc(C(C)(C)C)c1O | 24.5 µM (inactive) | 15.1 µM (inactive) | 20.5 µM (inactive) | 21 µM (inactive) | 40.7 µM (inactive) | 24 µM (inactive) | 21.5 µM (inactive) | 25.1 µM (inactive) | 18.4 µM (inactive) | 16.5 µM (inactive) | 24.1 µM (inactive) | 16.9 µM (inactive) | 21.6 µM (inactive) | 17.6 µM (inactive) | 19 µM (inactive) | 17.5 µM (inactive) | 20.1 µM (inactive) | 22.3 µM (inactive) | 17.5 µM (inactive)
10 | CCOC(=O)c1ccc(C(=O)/C(C#N)=C2\CCCN2C)[nH]1 | > 100 µM (inactive) | > 100 µM (inactive) | > 100 µM (inactive) | > 100 µM (inactive) | > 100 µM (inactive) | > 100 µM (inactive) | > 100 µM (inactive) | > 100 µM (inactive) | > 100 µM (inactive) | > 100 µM (inactive) | > 100 µM (inactive) | > 100 µM (inactive) | > 100 µM (inactive) | > 100 µM (inactive) | > 100 µM (inactive) | > 100 µM (inactive) | > 100 µM (inactive) | > 100 µM (inactive) | > 100 µM (inactive)
11 | CCS(=O)(=O)CCn1cnc2c1c(=O)n(C)c(=O)n2C | > 100 µM (inactive) | > 100 µM (inactive) | > 100 µM (inactive) | > 100 µM (inactive) | > 100 µM (inactive) | > 100 µM (inactive) | > 100 µM (inactive) | > 100 µM (inactive) | > 100 µM (inactive) | > 100 µM (inactive) | > 100 µM (inactive) | > 100 µM (inactive) | > 100 µM (inactive) | > 100 µM (inactive) | > 100 µM (inactive) | 0.0318 µM (active) | > 100 µM (inactive) | > 100 µM (inactive) | > 100 µM (inactive)
12 | CC(CC(=O)O)C(C(=O)O)C(=O)O (stereo unspecified) | > 100 µM (inactive) | > 100 µM (inactive) | > 100 µM (inactive) | > 100 µM (inactive) | > 100 µM (inactive) | > 100 µM (inactive) | > 100 µM (inactive) | > 100 µM (inactive) | > 100 µM (inactive) | > 100 µM (inactive) | > 100 µM (inactive) | > 100 µM (inactive) | > 100 µM (inactive) | > 100 µM (inactive) | > 100 µM (inactive) | > 100 µM (inactive) | > 100 µM (inactive) | > 100 µM (inactive) | > 100 µM (inactive)
13 | CC(C)(C)OC(=O)N(O)[C@@H]1C=C[C@H](n2cnc3c(N)ncnc32)C1 | > 100 µM (inactive) | > 100 µM (inactive) | > 100 µM (inactive) | – | 59 µM (inactive) | > 100 µM (inactive) | > 100 µM (inactive) | > 100 µM (inactive) | > 100 µM (inactive) | > 100 µM (inactive) | > 100 µM (inactive) | > 100 µM (inactive) | > 100 µM (inactive) | > 100 µM (inactive) | > 100 µM (inactive) | > 100 µM (inactive) | > 100 µM (inactive) | > 100 µM (inactive) | > 100 µM (inactive)
14 | CC1(C)N/C(=C\[N+](=O)[O-])C(C)(C)N1O | > 10 µM (inactive) | > 10 µM (inactive) | > 10 µM (inactive) | > 10 µM (inactive) | > 10 µM (inactive) | – | > 10 µM (inactive) | > 10 µM (inactive) | > 10 µM (inactive) | > 10 µM (inactive) | > 10 µM (inactive) | > 10 µM (inactive) | > 10 µM (inactive) | > 10 µM (inactive) | > 10 µM (inactive) | > 10 µM (inactive) | > 10 µM (inactive) | > 10 µM (inactive) | > 10 µM (inactive)
15 | O=C(O)c1cc2ccccc2c(Cc2c(O)c(C(=O)O)cc3ccccc23)c1O [PAMOIC ACID] | > 100 µM (inactive) | > 100 µM (inactive) | – | > 100 µM (inactive) | > 100 µM (inactive) | > 100 µM (inactive) | > 100 µM (inactive) | > 100 µM (inactive) | > 100 µM (inactive) | > 100 µM (inactive) | > 100 µM (inactive) | > 100 µM (inactive) | > 100 µM (inactive) | > 100 µM (inactive) | > 100 µM (inactive) | > 100 µM (inactive) | > 100 µM (inactive) | > 100 µM (inactive) | > 100 µM (inactive)
